Test results from publication PMC11864979, “First-in-class ultralong-target-residence-time p38α inhibitors as a mitosis-targeted therapy for colorectal cancer” (Nature Cancer, 2025).

Legend:
Test in all cases: selectivity profiling in a panel of 340 wild-type kinases (Reaction Biology Europe)
Format in all cases: binding
340 wild-type kinases [1] = target: T1, 340 wild-type kinases (Homo sapiens, UniProt Q9NZJ5); conditions: 0.2 µM 2015; read-out: EIF2AK3 residual activity
T1 construct: purchased Reaction Biology Europe
T1 sequence (Q9NZJ5 30-1116): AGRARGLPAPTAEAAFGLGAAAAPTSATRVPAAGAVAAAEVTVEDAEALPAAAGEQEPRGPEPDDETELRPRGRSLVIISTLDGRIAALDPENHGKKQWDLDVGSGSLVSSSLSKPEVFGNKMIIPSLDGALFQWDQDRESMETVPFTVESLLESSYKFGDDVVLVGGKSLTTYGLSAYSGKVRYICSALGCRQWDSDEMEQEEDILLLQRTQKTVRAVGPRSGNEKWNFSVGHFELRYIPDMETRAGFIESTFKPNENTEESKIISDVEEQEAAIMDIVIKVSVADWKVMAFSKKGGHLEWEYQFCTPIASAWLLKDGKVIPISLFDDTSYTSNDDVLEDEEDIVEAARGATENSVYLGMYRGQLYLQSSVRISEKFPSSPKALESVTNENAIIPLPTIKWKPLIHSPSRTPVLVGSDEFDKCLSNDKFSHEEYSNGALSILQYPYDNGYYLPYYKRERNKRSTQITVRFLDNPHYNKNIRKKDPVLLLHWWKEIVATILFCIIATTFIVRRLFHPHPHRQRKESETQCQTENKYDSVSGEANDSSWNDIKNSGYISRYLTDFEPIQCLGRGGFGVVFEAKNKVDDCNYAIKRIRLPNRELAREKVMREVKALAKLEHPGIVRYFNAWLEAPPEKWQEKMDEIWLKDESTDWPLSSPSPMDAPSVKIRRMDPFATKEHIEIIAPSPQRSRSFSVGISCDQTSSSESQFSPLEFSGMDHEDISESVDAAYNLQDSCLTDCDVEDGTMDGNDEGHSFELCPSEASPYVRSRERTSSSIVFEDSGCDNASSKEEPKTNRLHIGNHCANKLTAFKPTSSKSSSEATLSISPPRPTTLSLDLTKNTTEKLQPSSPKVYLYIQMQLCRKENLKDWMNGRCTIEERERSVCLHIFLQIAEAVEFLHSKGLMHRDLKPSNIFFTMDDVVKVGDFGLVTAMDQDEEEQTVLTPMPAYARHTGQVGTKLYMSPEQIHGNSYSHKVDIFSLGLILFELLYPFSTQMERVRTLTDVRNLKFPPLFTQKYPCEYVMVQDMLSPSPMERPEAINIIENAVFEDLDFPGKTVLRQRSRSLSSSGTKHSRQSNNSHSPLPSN
From the text: (§1) Potential interactions between 2015 and 340 wild-type kinases were checked by means of a competition binding assay performed by Reaction Biology Europe (Supplementary Table 15).

340 wild-type kinases [2] = target: T2, 340 wild-type kinases (Homo sapiens, UniProt O75582); conditions: 1 µM 2015; read-out: RPS6KA5 residual activity
T2 construct: purchased Reaction Biology Europe
From the text: as §1

340 wild-type kinases [3] = target: T3, 340 wild-type kinases (Homo sapiens, UniProt P27361); conditions: 0.2 µM 2015; read-out: ERK1 residual activity
T3 construct: purchased Reaction Biology Europe
From the text: as §1

340 wild-type kinases [4] = target: T4, 340 wild-type kinases (Homo sapiens, UniProt O43318); conditions: MAP3K7/MAP3K7IP1; 0.2 µM; read-out: residual activity
T4 construct: purchased Reaction Biology Europe
T4 sequence (O43318 1-606): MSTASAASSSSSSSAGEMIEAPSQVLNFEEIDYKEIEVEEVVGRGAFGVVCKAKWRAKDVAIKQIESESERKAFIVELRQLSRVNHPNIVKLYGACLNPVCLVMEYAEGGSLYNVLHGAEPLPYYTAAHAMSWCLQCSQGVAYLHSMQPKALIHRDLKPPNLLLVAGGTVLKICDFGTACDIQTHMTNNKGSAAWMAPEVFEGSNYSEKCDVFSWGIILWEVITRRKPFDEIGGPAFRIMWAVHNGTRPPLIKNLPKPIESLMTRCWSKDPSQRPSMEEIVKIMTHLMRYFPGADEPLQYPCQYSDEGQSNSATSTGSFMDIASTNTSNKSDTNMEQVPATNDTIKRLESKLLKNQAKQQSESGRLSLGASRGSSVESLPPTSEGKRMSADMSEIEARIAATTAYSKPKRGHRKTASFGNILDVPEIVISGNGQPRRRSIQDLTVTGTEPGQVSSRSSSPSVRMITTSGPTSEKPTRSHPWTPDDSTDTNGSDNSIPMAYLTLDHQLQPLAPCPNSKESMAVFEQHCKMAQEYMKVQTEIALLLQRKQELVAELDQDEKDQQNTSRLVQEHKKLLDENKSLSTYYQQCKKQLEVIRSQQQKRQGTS
From the text: as §1

340 wild-type kinases [5] = target: T5, 340 wild-type kinases (Homo sapiens, UniProt Q8NG66); conditions: 0.2 µM 2015; read-out: NEK11 residual activity
T5 construct: purchased Reaction Biology Europe
T5 sequence (Q8NG66 1-645): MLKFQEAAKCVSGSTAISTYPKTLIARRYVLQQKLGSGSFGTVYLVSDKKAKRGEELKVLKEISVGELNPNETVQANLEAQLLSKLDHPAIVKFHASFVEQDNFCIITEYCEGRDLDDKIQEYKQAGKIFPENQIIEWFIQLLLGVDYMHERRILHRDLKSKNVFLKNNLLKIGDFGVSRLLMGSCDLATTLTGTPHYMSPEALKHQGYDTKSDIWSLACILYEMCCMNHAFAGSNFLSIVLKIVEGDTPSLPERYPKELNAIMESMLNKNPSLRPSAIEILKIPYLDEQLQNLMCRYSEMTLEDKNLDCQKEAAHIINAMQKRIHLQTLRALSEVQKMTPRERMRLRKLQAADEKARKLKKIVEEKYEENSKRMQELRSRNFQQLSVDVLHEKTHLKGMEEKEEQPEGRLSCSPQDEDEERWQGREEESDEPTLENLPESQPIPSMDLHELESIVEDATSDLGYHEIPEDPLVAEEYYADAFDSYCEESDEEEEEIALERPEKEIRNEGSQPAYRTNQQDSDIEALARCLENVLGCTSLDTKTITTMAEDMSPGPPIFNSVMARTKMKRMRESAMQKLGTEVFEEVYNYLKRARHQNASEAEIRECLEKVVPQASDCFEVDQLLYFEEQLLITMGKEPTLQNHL
From the text: as §1

T2 sequence (O75582 whole entry): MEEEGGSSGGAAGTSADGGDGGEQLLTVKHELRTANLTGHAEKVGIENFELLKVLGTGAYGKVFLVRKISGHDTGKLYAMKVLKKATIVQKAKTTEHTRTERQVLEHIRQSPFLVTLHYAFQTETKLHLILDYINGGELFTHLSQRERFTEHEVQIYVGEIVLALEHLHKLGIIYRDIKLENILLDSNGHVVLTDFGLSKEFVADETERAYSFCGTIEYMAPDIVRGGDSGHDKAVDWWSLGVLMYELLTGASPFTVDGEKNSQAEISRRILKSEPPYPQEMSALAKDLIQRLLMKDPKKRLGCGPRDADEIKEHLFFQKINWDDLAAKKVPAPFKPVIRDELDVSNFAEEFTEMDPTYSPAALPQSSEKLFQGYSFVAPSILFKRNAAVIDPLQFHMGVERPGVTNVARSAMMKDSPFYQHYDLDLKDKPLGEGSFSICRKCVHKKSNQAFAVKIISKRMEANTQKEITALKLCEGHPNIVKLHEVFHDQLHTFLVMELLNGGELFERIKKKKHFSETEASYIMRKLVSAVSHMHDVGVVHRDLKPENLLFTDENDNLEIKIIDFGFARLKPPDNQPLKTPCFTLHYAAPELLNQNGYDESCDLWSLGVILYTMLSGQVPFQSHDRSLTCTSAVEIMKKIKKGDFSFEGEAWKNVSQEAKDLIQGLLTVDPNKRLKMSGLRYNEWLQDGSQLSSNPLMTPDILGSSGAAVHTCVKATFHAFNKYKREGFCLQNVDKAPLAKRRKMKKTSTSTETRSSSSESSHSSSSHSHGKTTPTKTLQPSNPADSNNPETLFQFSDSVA
T3 sequence (P27361 whole entry): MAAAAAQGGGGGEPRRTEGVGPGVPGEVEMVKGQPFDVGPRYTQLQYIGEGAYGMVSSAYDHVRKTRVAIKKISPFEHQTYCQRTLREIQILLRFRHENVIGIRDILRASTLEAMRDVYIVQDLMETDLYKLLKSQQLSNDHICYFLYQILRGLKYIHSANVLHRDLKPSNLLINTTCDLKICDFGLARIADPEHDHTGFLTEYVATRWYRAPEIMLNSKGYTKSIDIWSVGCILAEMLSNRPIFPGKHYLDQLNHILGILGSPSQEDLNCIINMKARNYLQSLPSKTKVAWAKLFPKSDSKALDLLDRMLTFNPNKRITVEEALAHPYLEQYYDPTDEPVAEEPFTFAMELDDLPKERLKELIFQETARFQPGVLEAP

In the case of `CNC(=O)c1ccc2c(c1)C(=O)c1ccc(Nc3ccc(F)c(NC(=O)C4CC4)c3)cc1CC2` [Compound 2015], the remaining activity at 0.2 µM (340 wild-type kinases [1]) is reported as 93.3%, the remaining activity at 1 µM (340 wild-type kinases [2]) is reported as 90.2% and the remaining activity at 0.2 µM (340 wild-type kinases [3]) is reported as 108%. The remaining activity at 0.2 µM (340 wild-type kinases [4]) was 96.8% and the remaining activity at 0.2 µM (340 wild-type kinases [5]) was 91.3%.
